Test results reported in the supplement of paper PMC11061612.

Key:
EB2 (Burkitt's Lymphoma) = experiment: combination Emax (second highest fraction inhibited in the dose matrix, 72 h); higher = more inhibition; extreme values may be limits of the assay
How it was run: (§1)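 Cell lines in DMEM/F12 or RPMI with 10% FBS were plated in 1536-well plates, held 24 hours at 37°C, 5% CO2, then given two-drug dose matrices for 72 hours (DMSO typically 0.2%). Viability was read by CellTiter-Glo 2.0 luminescence and scaled as inhibition from 0 (vehicle wells) to 1 (blank wells). Combination Emax is the second-highest inhibition in the matrix; Bliss excess is observed combination effect minus expected EA + EB − EA·EB, EA and EB being single-agent effects.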

HCC70 (Breast Carcinoma) [1] = experiment: as above
How it was run: as §1

[2] = system: NCI-H2087 (Lung Adenocarcinoma); experiment: as above
How it was run: as §1

IM-9 (Non-Cancerous) = experiment: as above
How it was run: as §1

[3] = system: MHH-ES-1 (Ewing's Sarcoma); experiment: as above
How it was run: as §1

[4] = system: SK-HEP-1 (Hepatocellular Carcinoma); experiment: as above
How it was run: as §1

HCC70 (Breast Carcinoma) [5] = experiment: Bliss excess, mean over the matrix (fraction); higher = more synergy
How it was run: as §1

[6] = system: JHU-022 (Oral Cavity Carcinoma); experiment: as above
How it was run: as §1

[7] = system: HCC1428 (Breast Carcinoma); experiment: combination Emax (second highest fraction inhibited in the dose matrix, 72 h); higher = more inhibition; extreme values may be limits of the assay
How it was run: as §1

[8] = system: DU-4475 (Breast Carcinoma); experiment: as above
How it was run: as §1
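For Bliss excess, mean over the matrix in this document: after 72 h of two-drug dosing.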

SMILES | combination Emax (EB2 (Burkitt's Lymphoma)) | combination Emax (HCC70 (Breast Carcinoma) [1]) | combination Emax [2] | combination Emax (IM-9 (Non-Cancerous)) | combination Emax [3] | combination Emax [4] | Bliss excess (HCC70 (Breast Carcinoma) [5]) | Bliss excess [6] | combination Emax [7] | combination Emax [8]
Cc1c2c(nn1C)CSCc1cc(n(C)n1)CSc1cc(c3ccccc3c1)OCCCc1c(C(=O)O)n(C)c3c-2c(Cl)ccc13 [AZD5991] + Nc1ccn([C@@H]2O[C@H](CO)[C@@H](O)C2(F)F)c(=O)n1 [Gemcitabine] (first compound max 1 µM, 7x7, partner max 0.3 µM) | 0.923 | 0.937 | 0.546 | 1 | 0.935 | 0.535 | 0.0365 | -0.0307 |  | 
Cc1c2c(nn1C)CSCc1cc(n(C)n1)CSc1cc(c3ccccc3c1)OCCCc1c(C(=O)O)n(C)c3c-2c(Cl)ccc13 [AZD5991] + CC(=O)O[C@H]1C(=O)[C@@]2(C)[C@H]([C@H](OC(=O)c3ccccc3)[C@]3(O)C[C@H](OC(=O)[C@H](O)[C@@H](NC(=O)c4ccccc4)c4ccccc4)C(C)=C1C3(C)C)[C@]1(OC(C)=O)CO[C@@H]1C[C@@H]2O [Paclitaxel] (first compound max 1 µM, 7x7, partner max 3 µM) | 0.666 | 0.973 | 0.554 | 1 | 0.965 | 0.857 | 0.0649 | 0.0286 |  | 
CC1(C)CCC(CN2CCN(c3ccc(C(=O)NS(=O)(=O)c4ccc(NCC5CCOCC5)c([N+](=O)[O-])c4)c(Oc4cnc5[nH]ccc5c4)c3)CC2)=C(c2ccc(Cl)cc2)C1 [Venetoclax] + CS(=O)(=O)CCNCc1ccc(-c2ccc3ncnc(Nc4ccc(OCc5cccc(F)c5)c(Cl)c4)c3c2)o1 [Lapatinib] (first compound max 1 µM, 7x7, partner max 10 µM) | 0.348 | 0.343 | 0.0976 | 0.958 | 0.371 | 0.308 | -0.0318 | -0.0551 |  | 
O=C(c1cc(Cc2n[nH]c(=O)c3ccccc23)ccc1F)N1CCN(C(=O)C2CC2)CC1 [Olaparib] + Cc1c2c(nn1C)CSCc1cc(n(C)n1)CSc1cc(c3ccccc3c1)OCCCc1c(C(=O)O)n(C)c3c-2c(Cl)ccc13 [AZD5991] (first compound max 10 µM, 7x7, partner max 1 µM) | 0.192 | 0.879 | 0.13 | 0.903 | 0.879 | 0.478 | -0.0185 | -0.052 |  | 
C[C@@H](Oc1cc(-c2cnn(C3CCNCC3)c2)cnc1N)c1c(Cl)ccc(F)c1Cl [Crizotinib] + CC1=C(C(=CC=C1)Cl)NC(=O)C2=CN=C(S2)NC3=CC(=NC(=N3)C)N4CCN(CC4)CCO [Dasatinib] (first compound max 10 µM, 7x7, partner max 2 µM) | 0.591 | 0.117 | 0.39 | 0.974 | 0.77 | 0.433 | -0.0407 | -0.0186 |  | 
C[C@@H]1COCCN1c1cc(C2([S@](C)(=N)=O)CC2)nc(-c2ccnc3[nH]ccc23)n1 [AZD6738] + Nc1ccn([C@@H]2O[C@H](CO)[C@@H](O)C2(F)F)c(=O)n1 [Gemcitabine] (first compound max 10 µM, 7x7, partner max 0.3 µM) | 0.942 | 0.826 | 0.699 | 1 | 0.995 | 0.645 | 0.0904 | 0.0407 |  | 
CS(=O)(=O)CCNCc1ccc(-c2ccc3ncnc(Nc4ccc(OCc5cccc(F)c5)c(Cl)c4)c3c2)o1 [Lapatinib] + Cn1cnc2c(F)c(Nc3ccc(Br)cc3Cl)c(C(=O)NOCCO)cc21 [Selumetinib] (first compound max 10 µM, 7x7, partner max 10 µM) | 0.324 | 0.891 | 0.575 | 0.994 | 0.401 | 0.133 | 0.0408 | -0.0636 |  | 
O=C(c1cc(Cc2n[nH]c(=O)c3ccccc23)ccc1F)N1CCN(C(=O)C2CC2)CC1 [Olaparib] + CN(CC[C@H](CSC1=CC=CC=C1)NC2=C(C=C(C=C2)S(=O)(=O)NC(=O)C3=CC=C(C=C3)N4CCC(CC4)[C@H](C5=CC=CC=C5C6=CC=C(C=C6)Cl)O)S(=O)(=O)C(F)(F)F)CCO [AZD4320] (first compound max 10 µM, 7x7, partner max 1 µM) | 0.13 | 0.253 | 0.413 | 0.924 | 0.952 | 0.911 | 0.0129 | -0.0411 |  | 
CS(=O)(=O)CCNCc1ccc(-c2ccc3ncnc(Nc4ccc(OCc5cccc(F)c5)c(Cl)c4)c3c2)o1 [Lapatinib] + NC1(c2ccc(-c3nc4ccn5c(=O)[nH]nc5c4cc3-c3ccccc3)cc2)CCC1 [MK-2206] (first compound max 10 µM, 7x7, partner max 10 µM) | 0.834 | 0.923 | 0.293 | 0.964 | 0.905 | 0.87 | 0.024 | -0.0585 | 0.308 | 0.983
O=C(c1cc(Cc2n[nH]c(=O)c3ccccc23)ccc1F)N1CCN(C(=O)C2CC2)CC1 [Olaparib] + COc1nnc2ccc(N3CCC(c4ccc(OCCN5CCN(C)C(=O)[C@H]5C)cc4)CC3)nn12 [AZD5153] (first compound max 10 µM, 7x7, partner max 1 µM) | 0.484 | 0.281 | 0.39 | 0.752 | 0.905 | 0.752 | -0.0402 | -0.0676 |  | 
Cc1c2c(nn1C)CSCc1cc(n(C)n1)CSc1cc(c3ccccc3c1)OCCCc1c(C(=O)O)n(C)c3c-2c(Cl)ccc13 [AZD5991] + CS(=O)(=O)CCNCc1ccc(-c2ccc3ncnc(Nc4ccc(OCc5cccc(F)c5)c(Cl)c4)c3c2)o1 [Lapatinib] (first compound max 1 µM, 7x7, partner max 10 µM) | 0.283 | 0.995 | 0.275 | 0.93 | 0.58 | 0.632 | 0.0603 | 0.0807 |  | 
C=CCn1c(=O)c2cnc(Nc3ccc(N4CCN(C)CC4)cc3)nc2n1-c1cccc(C(C)(C)O)n1 [AZD1775] + Nc1ccn([C@@H]2O[C@H](CO)[C@@H](O)C2(F)F)c(=O)n1 [Gemcitabine] (first compound max 1 µM, partner max 0.3 µM) | 0.942 | 0.513 | 0.6 | 1 | 0.983 | 0.514 | -0.0232 | 0.0276 |  | 
C=CCn1c(=O)c2cnc(Nc3ccc(N4CCN(C)CC4)cc3)nc2n1-c1cccc(C(C)(C)O)n1 [AZD1775] + CCc1c2c(nc3ccc(O)cc13)-c1cc3c(c(=O)n1C2)COC(=O)[C@]3(O)CC [SN-38] (first compound max 1 µM, partner max 0.3 µM) | 0.941 | 0.537 | 0.941 | 1 | 0.985 | 0.622 | -0.0528 | -0.0638 |  | 
CN(CCO)CC[C@H](CSc1ccccc1)Nc1ccc(S(=O)(=O)NC(=O)c2ccc(N3CCC([C@@H](O)c4ccccc4-c4ccc(Cl)cc4)CC3)cc2)cc1S(=O)(=O)C(F)(F)F [AZD4320] + CS(=O)(=O)CCNCc1ccc(-c2ccc3ncnc(Nc4ccc(OCc5cccc(F)c5)c(Cl)c4)c3c2)o1 [Lapatinib] (first compound max 1 µM, 7x7, partner max 10 µM) | 0.293 | 0.93 | 0.541 | 0.974 | 0.973 | 0.909 | 0.0536 | 0.0438 |  | 
C[C@@H](Nc1cc(F)cc(F)c1)c1cc(C(=O)N(C)C)cc2c(=O)cc(N3CCOCC3)oc12 [AZD8186] + CC(=O)c1c(C)c2cnc(Nc3ccc(N4CCNCC4)cn3)nc2n(C2CCCC2)c1=O [Palbociclib] (first compound max 10 µM, 7x7, partner max 10 µM) | 0.582 | 0.575 | 0.24 | 0.682 | 0.602 | 0.578 | 0.0225 | -0.0376 |  | 
O=C(c1cc(Cc2n[nH]c(=O)c3ccccc23)ccc1F)N1CCN(C(=O)C2CC2)CC1 [Olaparib] + CC1(C)CCC(CN2CCN(c3ccc(C(=O)NS(=O)(=O)c4ccc(NCC5CCOCC5)c([N+](=O)[O-])c4)c(Oc4cnc5[nH]ccc5c4)c3)CC2)=C(c2ccc(Cl)cc2)C1 [Venetoclax] (first compound max 10 µM, 7x7, partner max 1 µM) | 0.242 | 0.141 | 0.176 | 0.835 | 0.86 | 0.73 | -0.0472 | -0.0455 |  | 
C[C@@H](Nc1cc(F)cc(F)c1)c1cc(C(=O)N(C)C)cc2c(=O)cc(N3CCOCC3)oc12 [AZD8186] + C1CN(CCC1(C(=O)N[C@@H](CCO)C2=CC=C(C=C2)Cl)N)C3=NC=NC4=C3C=CN4 [AZD5363] (first compound max 10 µM, 7x7, partner max 10 µM) | 0.552 | 0.732 | 0.195 | 0.57 | 0.358 | 0.159 | -0.0152 | -0.0909 |  | 
Cc1nc(-c2cn3c(n2)-c2ccc(-c4cnn(C(C)(C)C(N)=O)c4)cc2OCC3)n(C(C)C)n1 [Taselisib] + O=C(Nc1ccc2[nH]nc(-c3ccncc3)c2c1)[C@@H]1CCN(CC(=O)N2CCN(c3ccc(-c4ncccn4)cc3)CC2)C1 [SCH772984] (first compound max 10 µM, 7x7, partner max 5 µM) | 0.563 | 0.943 | 0.71 | 0.851 | 0.609 | 0.389 | 0.0593 | -0.0001 |  | 
C[C@@H](Oc1cc(-c2cnn(C3CCNCC3)c2)cnc1N)c1c(Cl)ccc(F)c1Cl [Crizotinib] + Cn1cnc2c(F)c(Nc3ccc(Br)cc3Cl)c(C(=O)NOCCO)cc21 [Selumetinib] (first compound max 10 µM, 7x7, partner max 10 µM) | 0.566 | 0.448 | 0.587 | 1 | 0.889 | 0.387 | 0.0191 | -0.0115 |  | 
C[C@@H]1COCCN1c1cc(C2([S@](C)(=N)=O)CC2)nc(-c2ccnc3[nH]ccc23)n1 [AZD6738] + C1CC(C1)(C(=O)[O-])C(=O)[O-].N.N.[Pt+2] [Carboplatin] (first compound max 10 µM, 7x7, partner max 10 µM) | 0.76 | 0.763 | 0.564 | 0.966 | 0.51 | 0.166 | -0.0305 | -0.0325 |  | 
